Measured values from patent publication US12070445B2, “System and assay for monitoring production/release of membrane-lytic toxins in bacteria and compounds for modulating same” (priority 2021, dated 2024).
Where two headings read alike, the source gives them in different places.

What was measured:
[1] = test system: WT P. aeruginosa (PAO1-PGSC); test: Microtiter plate (96-well) vesicle lysis assay with WT P. aeruginosa; assay type: cell-based
Description: Compound handling and preparation. OdDHL and BHL (Hodgkinson et al., 2011), S. aureus AIP and peptide derivatives 1-5 (Tal-Gan et al., 2013, Tal-Gan et al., 2016, Vasquez and Blackwell, 2019), and compounds 7-9 (Welsh and Blackwell, 2016a, Boursier et al., 2018, Manson et al., 2020) were synthesized using previously described methods. PQS and compound 6 were purchased from Millipore Sigma and AK Scientific respectively. Compounds were stored dry at −20° C. until needed and then dissolved in DMSO. DMSO stock solutions were prepared at concentrations that varied with compound potency and apparent solubility. Final in-well compound concentrations for 96-well vesicle lysis assays, unless noted otherwise, were: 10 μM for AIP, OdDHL, and PQS; 1 mM for BHL; 100 nM for 1-4; 10 μM for 5; 20 μM for 6; 100 μM for 7 and 8; and 200 μM for 9.
Production of phospholipid vesicles with encapsulated calcein. Large unilamellar vesicles (LUVs) were produced by adapting a freeze-thaw and vesicle extrusion procedure (Mayer et al., 1986). Briefly, stock solutions of phospholipids (DOPC, DPPC, DPPE, or cholesterol) in chloroform were mixed to the desired lipid compositions (70 mol % DOPC/30 mol % cholesterol for S. aureus vesicles or 68 mol % DPPC, 30 mol % cholesterol, 2 mol % DPPE for P. aeruginosa vesicles), and the chloroform was removed using an N2 stream or rotary evaporation followed by drying for at least one hour under vacuum. Self-quenching solutions of calcein were prepared by combining calcein and PBS or a specially prepared calcein buffer (1 mM EDTA, 10 mM Trisbase, and 100 mM NaCl; pH 8) to a calcein concentration of […]. The resulting solutions were titrated with 10 M aqueous NaOH until all calcein was dissolved and the solution reached pH 7.4 or pH 8 for PBS and the calcein buffer, respectively. The resulting calcein solutions were added to the dried phospholipid films (PBS for S. aureus formulations and the calcein buffer for the P. aeruginosa formulations) for a final lipid concentration of 5 mg/mL. The resulting lipid solutions were vortexed vigorously and briefly sonicated in a bath sonicator to form a turbid vesicle suspension. The vesicle suspensions were then freeze-thawed five times by alternately immersing them into an iPrOH/dry ice bath and a warm water bath (˜60° C.). Vesicles prepared for continuous time-course experiments were passed at least 5 times through a 100 nm polycarbonate filter using a Mini-prep extruder. Vesicles prepared for the high-throughput screen were passed through the filter 3 times. The resulting vesicles were then separated from external, unloaded calcein using a hand-packed Sephadex-G50 size exclusion chromatography column. The concentration of phospholipid in the solution was quantified using ^31P NMR (per the above protocol), and the phospholipid concentration was adjusted to 2 mM for unsaturated lipid solutions and 1 mM for saturated lipid solutions in their respective buffers. The resulting vesicles were characterized by dynamic light scattering and found to have a hydrodynamic diameter of ˜150 nm (FIGS. 3A-3C), which agrees with previous reports describing vesicle production using a similar method (Lapinski et al., 2007).
Microtiter plate vesicle lysis assays. Portions of media (2 or 10 mL) were inoculated with individual bacterial colonies and allowed to shake overnight. […]

P. aeruginosa = P. aeruginosa growth (OD600); assay type: cell-based; details: P. aeruginosa WT and QS mutant with vesicles, 12 hr
Description: (§1) Microtiter plate vesicle lysis assays. Portions of media (2 or 10 mL) were inoculated with individual bacterial colonies and allowed to shake overnight. From these overnight cultures, subcultures were prepared by diluting the cultures 1:50 (v/v) in fresh BHI for S. aureus or 1:100 (v/v) in fresh LB for P. aeruginosa. An aliquot of each subculture (178 μL) was added to 20 μL of vesicle suspension and 2 μL of compound solution (dissolved in DMSO at 100× working concentration) in a clear-bottomed, black 96-well microtiter plate (Corning 3904). For controls, DMSO (vehicle) or Triton X-100 (1% final concentration) was substituted for compound. Plate covers were coated with an aqueous solution of 0.05% Triton X-100 and 20% ethanol (Brewster, 2003) to prevent the accumulation of condensation. Plates were incubated in a Biotek Synergy 2 microplate reader running Gen5 1.05 software at 37° C. with shaking at the high-speed setting. Fluorescence (excitation 500 nm, emission 540 nm) and OD600 (absorbance at 600 nm) measurements were recorded every 15 minutes for 12 hours. All experiments were performed in technical triplicate in a single microtiter plate. Biological triplicates were then obtained over three days. GraphPad Prism software (v. 9) was used to generate curves and calculate standard error.

agr = agr YFP transcriptional reporter assay (S. aureus AH1677 with pDB59); assay type: cell-based; details: for agr inhibition in agr transcriptional reporter assay: S. aureus agr YFP reporter; for IC50: Staphylococcus aureus
Description: Bacterial strains and culture. All bacteria were grown at 37° C. with 200 rpm shaking unless otherwise specified. S. aureus and P. aeruginosa were grown in BHI medium and LB medium, respectively. S. aureus AH1677 (with an agr-YFP reporter plasmid) and P. aeruginosa PAO1-PGSC (with a plasI-LVAgfp reporter plasmid) were used as QS transcriptional reporters and grown with 10 μg/mL chloramphenicol and 300 μg/mL carbenicillin, respectively. All other strains were grown without supplemental antibiotic. S. aureus RN6390b and P. aeruginosa PAO1-PGSC were used as WT strains in vesicle lysis experiments, while S. aureus RN9222 and P. aeruginosa PAO-JG35 were used as QS mutants. RN9222 was grown without antibiotic as it was not used as a reporter strain (i.e., it served only as QS mutant).
High-throughput screening and follow-up analysis protocols. Test compounds and positive control 1 were delivered in 2.5 nL aliquots of DMSO with an Echo 550 liquid handler (LabCyte Inc.) into black 384-well microtiter plates (Corning). All test compounds were tested at 10 μM; positive control 1 was tested at 250 nM. DMSO was used as a negative control. Overnight cultures (2 mL) of WT S. aureus (RN6390b) were grown at 37° C. with shaking at 200 rpm. These cultures were diluted 1:500 (v/v) in fresh BHI medium, at which point vesicle solutions were added to a final concentration of 1 mM phospholipid (as determined by ^31P NMR analyses). This vesicle-cell mixture was then added to the 384-well microtiter plates with a Multidrop 384 liquid-dispensing robot (Thermo Scientific) for a total volume of 50 μL per well. Plates were incubated statically for ˜24 hr at 37° C., at which point fluorescence (excitation 483, emission 530) and OD600 (absorbance at 600 nm) measurements were made using a CLARIOstarR Plus microtiter plate reader (BMG Labtech) running MARS data analysis software. Scatter plots were generated using the Collaborative Drug Discovery Vault informatics platform. The dose-response experiment using the vesicle lysis assay was performed in a 384-well plate in technical duplicate with compound concentrations of 0.1, 0.25, 0.5, 1, 2.5, 5, 10, and 20 μM. Dose-response curves were generated using variable slope (4 parameter) non-linear regression analysis for compound inhibition using GraphPad Prism software (v. 9). Analysis of the QS modulatory activity of the HTS hits and 6 (savirin) was performed using the S. aureus YFP transcriptional reporter strain. HTS hits were purchased directly from Life Chemicals, Inc. DMSO stock solutions (10 mM) of each compound were prepared and stored at −20° C. Serial dilutions (1:3) were prepared from the stock solutions in DMSO, and 2 μL aliquots of the resulting dilutions were added to the wells of black 96-well microtiter plates (Corning). Overnight cultures of the S. aureus reporter strain (2 mL) were grown at 37° C. with shaking at 200 rpm. Cultures were diluted 1:50 (v/v) into fresh BHI medium, and 198 μL of this diluted culture were added to each well containing compound, for a total volume of 200 μL per well. All plates contained a vehicle control consisting of 2 μL of DMSO and 198 μL of culture and a media control consisting of 200 μL BHI. Plates were incubated for ˜24 hours at 37° C. with shaking at 200 rpm. Fluorescence (excitation 510, emission 544) and OD600 measurements were acquired with a PerkinElmer EnVision microtiter plate reader running Envision Manager software. Background fluorescence from BHI control was subtracted from raw fluorescence reads, OD600 corrected, and finally normalized to vehicle control. Dose-response curves and IC50 values were generated using 3-parameter non-linear regression analysis for compound inhibition using GraphPad Prism software (v. 9). All compounds were tested in technical triplicate with at least 3 biological replicates.

S. aureus = S. aureus growth (OD600); assay type: cell-based; details: S. aureus, HTS hits
Description: as §1
High-throughput screening and follow-up analysis protocols. Test compounds and positive control 1 were delivered in 2.5 nL aliquots of DMSO with an Echo 550 liquid handler (LabCyte Inc.) into black 384-well microtiter plates (Corning). All test compounds were tested at 10 μM; positive control 1 was tested at 250 nM. DMSO was used as a negative control. Overnight cultures (2 mL) of WT S. aureus (RN6390b) were grown at 37° C. with shaking at 200 rpm. These cultures were diluted 1:500 (v/v) in fresh BHI medium, at which point vesicle solutions were added to a final concentration of 1 mM phospholipid (as determined by ^31P NMR analyses). This vesicle-cell mixture was then added to the 384-well microtiter plates with a Multidrop 384 liquid-dispensing robot (Thermo Scientific) for a total volume of 50 μL per well. Plates were incubated statically for ˜24 hr at 37° C., at which point fluorescence (excitation 483, emission 530) and OD600 (absorbance at 600 nm) measurements were made using a CLARIOstarR Plus microtiter plate reader (BMG Labtech) running MARS data analysis software. Scatter plots were generated using the Collaborative Drug Discovery Vault informatics platform. […] Fluorescence (excitation 510, emission 544) and OD600 measurements were acquired with a PerkinElmer EnVision microtiter plate reader running Envision Manager software. […]

human apelin receptor = biological target: T1, human apelin receptor (Homo sapiens, UniProt P35414); details: Smith, 2019; cited from earlier work
T1 sequence (P35414 1-380): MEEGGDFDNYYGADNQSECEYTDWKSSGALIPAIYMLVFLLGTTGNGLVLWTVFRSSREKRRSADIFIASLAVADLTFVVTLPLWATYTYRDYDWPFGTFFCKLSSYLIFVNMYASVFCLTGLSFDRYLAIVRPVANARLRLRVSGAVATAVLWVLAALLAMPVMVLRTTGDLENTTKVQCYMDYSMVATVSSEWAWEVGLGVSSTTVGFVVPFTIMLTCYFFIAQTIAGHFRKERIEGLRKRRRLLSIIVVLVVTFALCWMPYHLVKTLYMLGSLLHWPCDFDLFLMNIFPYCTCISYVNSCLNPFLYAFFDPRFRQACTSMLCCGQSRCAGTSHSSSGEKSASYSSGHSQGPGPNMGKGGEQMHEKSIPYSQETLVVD

[2] = Solubility in DMSO and aqueous solutions
[3] = 24 h, read-out: IC50 in the agr reporter assay

## CCCCCCCCCC(=O)CC(=O)Nc1ccccc1 [Compound 7, V-06-018]
[1]; 100 μM 7 and 8
  delay of vesicle lysis relative to vehicle controls: approximately two
[1]; 100 μM 7 and 8, FIG. 7C
  delay of the onset of vesicle lysis: approximately 2 hr
P. aeruginosa
  effect on bacterial growth: inhibit growth mildly at later time points

## Cc1nn2c(C(C)C)cc(C(=O)O)nc2c1-c1ccccc1 [Compound 10, 7-isopropyl-2-methyl-3-phenylpyrazolo[1,5-a]pyrimidine-5-carboxylic acid]
agr
  agr inhibition in agr transcriptional reporter assay: near maximal agr inhibitors
  IC50: 1220 nM
agr; [3]
  IC50: 500 nM
S. aureus
  inhibition of cellular growth: do not inhibit cellular growth
Human apelin receptor
  reported activity at human apelin receptor: agonists
[2]
  solubility in DMSO and aqueous solutions: readily soluble

## O=C(Nc1nc2c(s1)CN(C(=O)Nc1cccc(Cl)c1)CC2)c1ccsc1 [Compound 11, N-(3-chlorophenyl)-2-(thiophene-3-carboxamido)-6,7-dihydrothiazolo[5,4-c]pyridine-5(4H)-carboxamide]
agr
  agr inhibition in agr transcriptional reporter assay: near maximal agr inhibitors
agr; [3]
  IC50: 700 nM
S. aureus
  inhibition of cellular growth: do not inhibit cellular growth
[2]
  solubility in DMSO and aqueous solutions: readily soluble
